The results in this text go back to patent US10286038B2, “Lysosome membrane protein 2 (LIMP-2) based peptides and related uses” (Northwestern University, priority 2016, dated 2019).

Assay [1] has as its target T1, recombinant N370S mutant GC (Homo sapiens, UniProt P04062, N409S).
T1 sequence (P04062 40-536 N409S): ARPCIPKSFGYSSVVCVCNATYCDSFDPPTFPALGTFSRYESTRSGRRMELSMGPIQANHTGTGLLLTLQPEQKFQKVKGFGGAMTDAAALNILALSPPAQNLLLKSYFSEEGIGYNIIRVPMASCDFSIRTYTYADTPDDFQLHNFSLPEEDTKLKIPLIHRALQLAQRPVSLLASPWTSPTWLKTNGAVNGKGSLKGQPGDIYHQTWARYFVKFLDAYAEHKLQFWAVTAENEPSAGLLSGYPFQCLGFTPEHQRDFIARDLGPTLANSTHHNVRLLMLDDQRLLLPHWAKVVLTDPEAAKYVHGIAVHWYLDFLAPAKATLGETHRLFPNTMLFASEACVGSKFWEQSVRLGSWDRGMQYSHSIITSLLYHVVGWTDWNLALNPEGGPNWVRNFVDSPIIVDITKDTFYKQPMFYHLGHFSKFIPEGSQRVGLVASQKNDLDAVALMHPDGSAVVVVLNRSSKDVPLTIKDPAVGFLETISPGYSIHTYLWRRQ
Kind of assay: activity assay of recombinant N370S mutant GC (4-MU substrate). It counts as biochemical. Conditions: cell-free, tenfold molar amount of peptide, relative to buffer control. The text has this:
To determine the enzymatic activity of the recombinant enzymes, lyophilized enzymes were reconstituted in the NaPi buffer described above. The lyophilized samples of wild-type GC (Cerezyme®) and the custom-made recombinant N307S mutant enzyme contain 0.01% polysorbate 80 (Tween 80) (see prescription information for Cerezyme® at the website for Cerezyme®). As indicated in our experiments, the concentration of the detergent is sufficient to support active GC enzyme and to perform the in vitro GC activity assays without adding further detergents to the reaction mix. […]
Using the fluorescent substrate 4-MU (FIG. 3K), 10 μL of the recombinant enzyme/peptide mixture (0.1 nmol GC/N370S previously incubated with 1 nmol helix 5 TAT peptide in 50 mM NaPi buffer; total incubation volume 40 μL) were incubated directly with 60 μL of 0.2 M sodium citrate buffer and 10 μL of the substrate (5 mM dissolved in 0.2 M sodium citrate buffer) in a black-bottomed 96-well dish (Nunc no. 446473; Thermo Fisher Scientific). […] The fluorescence was assessed at an excitation wavelength of 365 nm and an emission wavelength of 445 nm in a SpectraMax i3 plate reader (Molecular Devices). […]

The next assay concerns the target T2, GC in H4 cells (Homo sapiens, UniProt P04062).
T2 construct: Lysosomal GC activity of living H4 cells measured in vivo after incubation with uptake-optimized TAT-peptides; endogenous in cells; host or cells: H4 human neuroglioma cells (for the 74 h course: stably overexpressing α-synuclein)
T2 sequence (P04062 40-536): T1 sequence (P04062 40-536 N409S) with S370N
The experiment in a line: whole cell GC activity of H4 cell lysate over the 74 hrs time course. It counts as cell-based. The conditions noted are these: H4 cells incubated with TAT-peptide. Here is the method:
FIG. 6: Characterization of a helical LIMP-2-derived peptide. […] B) In vitro peptide pulldown assay: helix 5 peptides were incubated with recombinant LAMAN and bovine serum albumin (BSA). INPUT and BOUND fractions were loaded onto SDS-PAGE and proteins visualized by coomassie staining (CBB). C) Densitometry of LAMAN and BSA protein bound to peptide, normalized to protein fraction bound to beads only (buffer; n=2-3). D) and E) Activity assay of recombinant (D) GC and (E) LAMAN incubated with different excess molarities (1×-10×) of helix 5 peptide (n=β-5) and LIMP-2 ectodomain (n=4). GC activities were normalized and statistical analyses compared to 0 input of BSA/helix 5 peptide. F) Peptide-pulldown of GC constructs overexpressed in N2a cells with subsequent Western blot analysis (α-hGC) utilizing helix 5 and the 3×D control peptide as a negative binding control. G) Densitometry of GC protein bound to peptides; each construct is normalized to buffer only. H) Live-cell lysosomal GC activity of H4 cells after uptake of helix 5 and 3×D TAT peptides. GC activity was measures every 30 minutes up to 3.5 hours. Cells were treated with DMSO or the “lysosomal inhibitor” bafilomycinA1. […] Lysosomal activity is calculated by subtracting the AUC of DMSO with the AUC of bafilomycinA1 treated samples (n=4). […] GC activity was measured from 16-74 hours and is shown in mU/mg (n=3). […]

Substitutions are numbered along the chain they refer to.

Regarding “Biotin-Ttds-KFERQLREIIEAMLKAYQQKLFVTHTVDEYGRKKRRQRRR [helix 5 TAT-peptide]”, the “increase in the activity of the N370S mutant GC” value in assay [1] is given as “four-fold increase”. The “enhancement of GC activity over the 74 hrs time course” value at GC in H4 cells is reported as “persists”.
